{"source": "patent US9463194B2", "about": "“Methods of treating patients co-infected with HIV and tuberculosis” (priority 2014, dated 2016)", "key": {"[1]": {"details": "in vivo; cited from earlier work"}, "[2]": {"assay": "Steady-state pharmacokinetic interaction study of EVG/COBI Composition plus evening COBI plus RFB QOD in healthy volunteers", "type": "in vivo, human", "procedure": "“Ctau” or “Ctrough” is a pharmacokinetic (PK) parameter that refers to the concentration of the drug at the end of the dosing interval. This parameter is obtained by direct measurement of the drug concentrations in a plasma sample collected from the study subject at the end of the dosing interval (i.e., 24 hours post-dose) using a validated high-performance liquid chromatography/tandem mass spectrometry (HPLC/MS/MS) bioanalytical assay.\nThis study evaluated the steady-state pharmacokinetics and safety of the coadministered Composition and an additional dose of COBI in combination with RFB QOD.\nLack of PK alteration bounds for 90% confidence intervals (CI) about the geometric mean ratio (GMR) (coadministration: alone) were 70-143% for EVG and RFB."}, "[3]": {"system": "wild type HIV virus", "assay": "In vitro assay of concentration-dependent inhibition of wild type HIV virus (IC95)", "type": "cell-based", "source_text": "“IC95” or “EC95” refers to the inhibitory concentration required to achieve 95% of the maximum desired effect, which in the case of EVG is the inhibition of the HIV virus. This term is obtained using an in vitro assay evaluating the concentration-dependent inhibition of wild type HIV virus."}, "[4]": {"details": "ritonavir-boosted EVG + RFB QOD; cited from earlier work"}, "[5]": {"details": "RFB metabolite; cited from earlier work"}, "[6]": {"details": "coadministration (Composition QD + COBI 150 mg evening + RFB 150 mg QOD) : alone, healthy volunteers, n = 14, steady state"}}, "note": "“Also recorded” adds a separate entry of the source."}
{"compound": "CC(C)c1nc(CN(C)C(=O)N[C@@H](CCN2CCOCC2)C(=O)N[C@H](CC[C@H](Cc2ccccc2)NC(=O)OCc2cncs2)Cc2ccccc2)cs1", "note": "[COBI]", "values": [{"measurement": "exposures upon coadministration with RFB (previous research)", "setting": "[1]", "value": "substantially lower"}, {"measurement": "levels lower by 24 hrs post dose when co-administered with RFB", "setting": "[1]", "value": 70, "unit": "%"}]}
{"compound": "CO[C@H]1/C=C/O[C@@]2(C)Oc3c(C)c(O)c4c(c3C2=O)C2=NC3(CCN(CC(C)C)CC3)NC2=C(NC(=O)/C(C)=C\\C=C\\[C@H](C)[C@H](O)[C@@H](C)[C@@H](O)[C@@H](C)[C@H](OC(C)=O)[C@@H]1C)C4=O", "note": "[RFB, 1′,4-didehydro-1-deoxy-1,4-dihydro-5′-(2-methylpropyl)-1-oxorifamycin XIV]", "values": [{"measurement": "exposures versus reference treatment (in words)", "setting": "[2]; Composition QD + COBI 150 mg evening + RFB 150 mg QOD, no-effect boundary 70-143%", "value": "within the predefined no-effect boundary; also recorded: clinically equivalent exposures"}, {"measurement": "Ctau higher versus reference treatments", "setting": "[2]; EVG QD + COBI BID + RFB QOD versus reference treatment", "value": 41, "unit": "%"}, {"measurement": "AUCtau % GMR (90% CI)", "setting": "[2]; [6]", "value": "114.44 (100.27, 130.62) %"}, {"measurement": "Cmax % GMR (90% CI)", "setting": "[2]; [6]", "value": "116.26 (101.44, 133.23) %"}, {"measurement": "Ctau % GMR (90% CI)", "setting": "[2]; [6]", "value": "140.76 (123.76, 160.09) %"}]}
{"compound": "COc1cc2c(cc1Cc1cccc(Cl)c1F)c(=O)c(C(=O)O)cn2[C@H](CO)C(C)C", "note": "[EVG, elvitegravir]", "values": [{"measurement": "exposures upon coadministration with RFB (previous research)", "setting": "[1]", "value": "substantially lower"}, {"measurement": "levels lower by 24 hrs post dose when co-administered with RFB", "setting": "[1]", "value": 70, "unit": "%"}, {"measurement": "IC95", "setting": "[3]", "value": 0.045, "unit": "µg/mL"}]}
{"compound": "CC(C)c1nc(CN(C)C(=O)N[C@H](C(=O)N[C@@H](Cc2ccccc2)C[C@H](O)[C@H](Cc2ccccc2)NC(=O)OCc2cncs2)C(C)C)cs1", "note": "[ritonavir]", "values": [{"measurement": "exposure when co-administered with RFB QOD (ritonavir boosting, in words)", "setting": "[4]", "value": "maintained through the end of the dosing interval"}]}
{"compound": "25-O-desacetylrifabutin", "values": [{"measurement": "exposure higher versus RFB alone", "setting": "[2]; RFB metabolite, EVG QD + COBI BID + RFB QOD versus RFB alone", "value": "~12", "unit": "fold"}, {"measurement": "contribution to total antimycobacterial activity", "setting": "[5]", "value": "~10", "unit": "%"}]}
